Values quoted from earlier work in patent US20050085485A1, “Orally dispersible pharmaceutical piribedil composition” (priority 2002, published 2005).

Details: humans

period over which therapeutic levels are spread out (currently marketed prolonged-release form, 50 mg dose): more than 24 hours
bioavailability by the oral route (oral route in relation to the parenteral route): low
SMILES: c1cnc(N2CCN(Cc3ccc4c(c3)OCO4)CC2)nc1 [piribedil, Piribedil]
